Drawing on PubChem BioAssay AID2305 (GlaxoSmithKline (GSK), 2010), this text covers IC50 for 85 compounds.

For this experiment, the system named is P. falciparum 3D7 growth, pLDH absorbance. Briefly: P. falciparum 3D7 growth inhibition, dose response, strain 3D7 (AID 2305).

For the compound `CNC(=O)Cc1ccc(C(=O)Nc2cccc(-c3csc(-c4nc5ccccc5[nH]4)c3)c2)cc1`, the IC50 was found to be 270 nM.
`CCCN1CCN(CCCNC(=O)c2cc3c(-c4ccc(Cl)cc4)nn(C)c3s2)CC1` had an IC50 of 1100 nM.
The same measure for `Oc1ccccc1CNCc1ccc(-c2cnc(N3CCCC(c4ccccc4)C3)nc2)cc1` (stereo not given): 690 nM; for `COc1ccc2c(=O)c(-c3ccc(OC(F)(F)F)cc3)c(C)[nH]c2c1`: 230 nM.
`CCN(CC)CCN(Cc1ccc(-c2ccc(C(F)(F)F)cc2)cc1)C(=O)Cn1cc(CCCCc2cccc(F)c2F)c(=O)c2ccccc21` had an IC50 of 880 nM.
The figure for `CCOc1ccc(-c2nonc2NC(=O)c2ccco2)cc1OCC` is 750 nM.
In the case of `COc1ccc2nccc([C@@H](O)CN3CCC(CO)(NCc4cc5ccccc5o4)CC3)c2c1`, the IC50 is 1370 nM. This IC50 lies about 1.8-fold higher than the previous one.
Take `CCOC(=O)c1cccc(NC(=O)Nc2cccc(-c3ncc(OCCCN)c4c3nc(-c3nonc3N)n4CC)c2)c1`: the IC50 came to 890 nM. Against the preceding compound, the IC50 is about 1.5-fold lower.
The same measure for `Cc1nc2nc(N)nc(N)c2c(C)c1Cc1ccc(C(N)=O)cc1`: 530 nM; for `CS(=O)(=O)Cc1cccc(Nc2ncc(Cl)c(Nc3cccnc3C(N)=O)n2)c1`: 170 nM.
Turning to `COc1cc(CNC[C@@H](O)[C@H](Cc2ccccc2)NC(=O)c2cc(C3CCCC3)cc(N3CCCC3=O)c2)cc(OC)c1`, the IC50 was 220 nM.
For the compound `CCOC(C(=O)OCCN(C(C)C)C(C)C)(c1ccccc1)c1ccccc1`, the IC50 was determined as 870 nM.
The same measure for `OC1(Cc2ccccc2)CCN(Cc2cccc(-c3c[nH]c4nc(NC5CCCC5)ncc34)c2)CC1`: 930 nM; for `Cc1cc(-c2ccc(CNCc3ccsc3)cc2)ccc1S(=O)(=O)NCCN1CCCC1`: 720 nM; for `CS(=O)(=O)CCNC(=O)c1ccc(-c2cc3c(Nc4ccc5c(cnn5Cc5ccccc5)c4)ncnc3cn2)o1`: 1000 nM.
The compound `O=C(/C=C/c1ccc(Cl)cc1)NCCCCCN1CCCC(C(=O)Nc2ccc(Cl)c(Cl)c2)C1` (stereo not given) registered an IC50 of 830 nM.
The same measure for `CC(Oc1cccc(Cl)c1)C(=O)N1CCc2ccccc21` (stereo not given): 510 nM; for `COC(=O)c1cccc(CNCc2cccc(-c3ccc(-c4nc5c(C)cccc5[nH]4)cc3)c2)c1`: 320 nM.
The same measure for `Clc1ccc(OCCC2CCN(CCCCCCCN3CCC(CCOc4ccc(Cl)c(Cl)c4)CC3)CC2)cc1Cl`: 620 nM; for `CCCOc1ccc(NC(=O)c2cccs2)cc1Cl`: 860 nM; for `CC(CN(C)C)C(=O)Nc1cccc(-c2ccc(-c3nc4ccc(C(F)(F)F)cc4[nH]3)cc2)c1` (stereo not given): 250 nM.
Take `COc1cc(Nc2nccc(N3CCC(NC(=O)Nc4ccc5c(c4)OCO5)C3)n2)cc(OC)c1OC` (stereo not given): the IC50 turned out to be 760 nM.
The same measure for `O=S(=O)(c1c(Cl)cc(Cl)cc1Cl)N1CCCCC(c2ccc(F)c(F)c2)=N1`: 590 nM; for `NC1=NC(c2ccccc2)N(OCc2ccccc2)C(N)=N1` (stereo not given): 40 nM.
The figure for `Cc1ccc2cc(C3NC(=O)c4ccccc4N3)c(Cl)nc2c1` (stereo not given) is 940 nM.
The figure for `CCNc1cc(C(=O)N[C@@H](Cc2ccccc2)[C@H](O)CNC(C)(C)CSCC(C)C)cc(N2CCCC2=O)c1` is 260 nM.
The compound `CC(C)C[C@H](NC(=O)c1cc(-c2ccc(F)cc2)no1)C(=O)O` (tested in a mixture with another compound) came in with an IC50 of 980 nM.
The same measure for `CC(NC(=O)c1ccc(O)c(-c2ccc(Cl)c(Cl)c2)c1)C(=O)NCCN1CCCC1` (stereo not given): 760 nM; for `CC(=O)Nc1ccc(CN2CCc3ccc(NS(=O)(=O)c4cccc(OCc5ccc(Cl)cc5)c4)cc3CC2)s1`: 910 nM; for `CCCCN(CCCC)Cc1cc2ccccc2cc1O`: 350 nM.
The figure for `COc1ccccc1CCNc1nc(C)cc(N[C@@H](Cc2ccccc2)C(=O)NCc2cccs2)n1` is 630 nM.
`Oc1ccc(CCNCc2ccc(OCc3ccccc3)c(OCc3ccccc3)c2)cc1` gave an IC50 of 1510 nM.
As to `Nc1ccc(-c2nc3c(ccc4ccccc43)[nH]2)cc1`, the IC50 stood at 940 nM.
`COc1cc(CNCCCNc2nc3ccsc3c(=O)[nH]2)c2[nH]cc(Cl)c2c1` returned an IC50 of 890 nM.
The compound `COc1cc2nc(N3CCC(CNC(=O)c4ccc(OC(F)(F)F)cc4)CC3)nc(N)c2cc1OC` returned an IC50 of 220 nM.
The figure for `O=C(NC1CC1)c1ccc(Nc2nccc(-c3c(-c4cccc(NC(=O)c5c(F)cccc5F)c4)nn4ccccc34)n2)cc1` is 410 nM.
`O=C(Cn1c(CCc2cccc(F)c2F)nc(=O)c2ccccc21)N(Cc1ccc(-c2ccc(C(F)(F)F)cc2)cc1)C1CCN(C2=NCCS2)CC1` returned an IC50 of 1330 nM.
Compound `CCN(CC)c1ccc(C(=O)Cn2ccc(=N)cc2)cc1` returned an IC50 of 1000 nM.
The figure for `O=C(COc1cnc2ccccc2n1)Nc1ccccc1Sc1ccc(Cl)cc1` is 730 nM; for `O=c1[nH]nc(-c2ccc(N3CCCC3)c([N+](=O)[O-])c2)c2ccccc12` it is 630 nM; for `O=S(=O)(NCCN1CCCC1)c1cccc(-c2cccc(CNCc3ccsc3)c2)c1` it is 870 nM.
The figure for `O=C(NCCCCCN1CCC(c2c[nH]c3ccccc23)CC1)Nc1ccc(Br)cc1` is 920 nM.
The same measure for `COc1ccc2ccc(OC)c(CNCCCCCCNCc3c(OC)ccc4ccc(OC)cc34)c2c1`: 700 nM; for `O=C(Cc1cnc[nH]1)Nc1ccc(-c2ccc(-c3nc4ccc(F)cc4[nH]3)cc2)cc1`: 730 nM; for `CC(C)(C)c1ccc(NC(=O)c2cccc(CN3CCCN(Cc4cccc(C#N)c4)CC3)c2)cc1`: 760 nM.
`COc1cc(CNCCC(C)C)ccc1OCc1cccc(COc2ccc(CNCCC(C)C)cc2OC)c1` returned an IC50 of 490 nM.
The same measure for `Oc1ccc(Cl)cc1Nc1nc(C(F)(F)F)nc2ccccc12`: 940 nM.
The same measure for `FC(F)(F)c1ccc(COc2cc(Cl)ccc2Cn2ccnc2)cc1`: 650 nM; for `Cn1c(=O)c2nc(-c3ccc(Cl)cc3)nnc2n(CCCC#N)c1=O`: 150 nM.
With `CC(C)[C@H]1C(=O)N(S(C)(=O)=O)[C@H]2CCN(C(=O)c3ccc(CN4CCCCC4)c([N+](=O)[O-])c3)[C@H]12`, the IC50 came to 620 nM.
The same measure for `N#Cc1cc([N+](=O)[O-])ccc1-n1nc(-c2cccc(Cl)c2)n(Cc2ccco2)c1=S`: 200 nM; for `CCc1cc(COc2ccc(CNCCC(C)C)cc2I)c(OCc2ccccc2)c(COc2ccc(CNCCC(C)C)cc2I)c1`: 1110 nM.
The figure for `Oc1cccc(-c2nc(-c3ccccc3)c(-c3ccc4oc5ccc(-c6[nH]c(-c7cccc(O)c7)nc6-c6ccccc6)cc5c4c3)[nH]2)c1` is 790 nM.
The figure for `COc1cccc(C(=O)NCc2cccs2)c1OCc1ccccc1` is 920 nM; for `c1cc(-c2ccc(CNCCCN3CCOCC3)cc2)cc(-c2nc3ccccc3[nH]2)c1` it is 210 nM.
As to `O=C(Nc1ccc(CCNC2=NCCN2)cc1)Nc1ccc(CCNC2=NCCN2)cc1`, the IC50 turned out to be 790 nM.
The figure for `CC[C@H](C)CNC(=O)c1ccc(-c2cccc(CN3CCC(N4CCCC4)CC3)c2)nc1` is 790 nM.
For the compound `O=C(/C=C/c1ccc(Cl)c(Cl)c1)NCCCCCN1CCC(C(=O)Nc2ccc3c(c2)OCO3)CC1`, the IC50 came to 840 nM.
The same measure for `Cc1ccc(N/C(N)=N/c2ncccc2OCc2c(F)cccc2Cl)cc1`: 1190 nM; for `Cc1cc(N2CCN(CC3CCN(C)CC3)CC2)nc(Nc2ccc(Br)cc2)n1`: 440 nM; for `N#Cc1ccc(NC(=O)NC2CCN(CCCCCNC(=O)/C=C/c3ccc(Cl)c(Cl)c3)CC2)cc1`: 800 nM.
The same measure for `CS(=O)(=O)c1cccc(-c2ccc3oc(C(N)=O)c(NC(=O)c4cccs4)c3c2)c1`: 590 nM; for `ON=C1c2cc(OCCN3CCCCC3)c(Cl)cc2-c2cc(Cl)c(OCCN3CCCCC3)cc21`: 700 nM; for `C=CCn1c(SCC(=O)Nc2cc(C)ccc2OC)nc2sc(C)cc2c1=O`: 420 nM.
The same measure for `Cc1cccc(CNc2nc(C)cc(NCCC(=O)NCc3cccc(F)c3)n2)c1`: 850 nM; for `Cc1[nH]n(-c2cccc(Cl)c2)c(=O)c1-c1ccc(Cl)cc1`: 930 nM; for `CS(=O)(=O)c1ccc2nc(-c3cc(-c4cccc(F)c4)cnc3N)[nH]c2c1`: 1090 nM.
`Cc1cccc2[nH]c(-c3cccc(-c4cccc(C(=O)NCCN5CCCC5)c4)c3)nc12` came in with an IC50 of 830 nM. This IC50 and that of the compound before are within 1.5-fold of each other.
The same measure for `OC1(CNCc2ccccc2)CCN(CCc2c[nH]c3ccc(F)cc23)CC1`: 710 nM.
As to `Cc1nn(-c2ccccc2)nc1C(=O)N(Cc1ccc(-c2ccc(CNCCc3ccc(S(C)(=O)=O)cc3)cn2)cc1)C(C)CN(C)C` (stereo not given), the IC50 turned out to be 680 nM.
The figure for `CC(C)Nc1cc(C(=O)N[C@@H](Cc2ccccc2)[C@H](O)CNC(C)(C)c2cccc(C(F)(F)F)c2)cc(N2CCCCS2(=O)=O)c1` is 80 nM; for `CCCCC/C=C/C(=O)NC1CCC(CN2CCC(c3c[nH]c4ccccc34)CC2)CC1` (stereo not given) it is 980 nM; for `CCc1ccc(CN2CCC(CNC(=O)c3cc(-c4ccccc4Cl)cs3)C2)cc1` (stereo not given) it is 1430 nM.
The same measure for `CN(C)CC(=O)Nc1ccc(-c2ccc3ccnc(N)c3c2)cc1`: 30 nM; for `Cc1[nH]c(C)c(-c2ccc(-c3ccc(OC(F)(F)F)cc3)cc2)c(=O)c1Cl`: 40 nM; for `Nc1cc(-c2cccc(Cl)c2)nn1-c1ccnc2cc(Cl)ccc12`: 750 nM.
`CCNc1cc(C(=O)N[C@@H](Cc2ccccc2)[C@H](O)CNCc2cc(OC)cc(OC)c2)cc(N2CCCC2=O)c1`: the IC50 came out at 740 nM.
The same measure for `ON=C1CCc2cc(-c3nc(-c4ccc(OCCN5CCCCC5)cc4)[nH]c3-c3ccncc3)ccc21`: 800 nM; for `Cc1cc(OC(C)C(=O)N2CCc3ccccc32)ccc1Cl` (stereo not given): 790 nM.
The same measure for `CN(C)C(=NCCCCCCN=C(NC(N)=NCc1ccc(Cl)c(Cl)c1)N(C)C)NC(N)=NCc1ccc(Cl)c(Cl)c1`: 300 nM; for `CCN(CC)C(=NCCCCCCCCN=C(/N=C(/N)Nc1ccc(Cl)cc1)N(CC)CC)/N=C(/N)Nc1ccc(Cl)cc1`: 400 nM.
The figure for `CN(C)CCNCc1cccc(-c2ccc3c(Nc4ccc(F)cc4Cl)ccnc3c2)c1` is 810 nM.
Regarding `OC(CN1CCN(c2cccc(Cl)c2)CC1)C(c1ccccc1)c1ccccc1` (stereo not given), the concentration for half-maximal inhibition (IC50) came to 1150 nM. This IC50 and that of the compound before are within 1.5-fold of each other.
The figure for `CC(C)(C)NCc1cc(Nc2ccnc3cc(Cl)ccc23)ccc1F` is 30 nM.
The figure for `O=C(Nc1ccc(S(=O)(=O)N2CCCCCC2)cc1)c1cc(-c2ccccc2O)n[nH]1` is 720 nM.

By IC50 is commonly meant the midpoint of a concentration-inhibition curve. A higher IC50 goes with lower potency.
